# Reference: US11753413B2, “Substituted pyrrolo[2,1-f][1,2,4]triazine compounds as JAK2 V617F inhibitors” (Incyte Corporation, priority 2020, dated 2023)
# How the values were obtained:
# [1] = biological target: T1, pseudo-kinase domain (JH2) of human V617F mutant JAK2 (Homo sapiens, UniProt O60674, F794H/V617F/W659A/W777A); experiment: JAK2 LanthaScreen JH2-V617F Binding Assay; conditions: read-out: JH2 BIND V617F
# T1 construct: JH2, amino-acids 536-812 with 3 surface mutations; His (C); purchased BPS Bioscience 79498; host or cells: baculovirus expression system
# T1 sequence (O60674 536-812 V617F/W659A/W777A/F794H): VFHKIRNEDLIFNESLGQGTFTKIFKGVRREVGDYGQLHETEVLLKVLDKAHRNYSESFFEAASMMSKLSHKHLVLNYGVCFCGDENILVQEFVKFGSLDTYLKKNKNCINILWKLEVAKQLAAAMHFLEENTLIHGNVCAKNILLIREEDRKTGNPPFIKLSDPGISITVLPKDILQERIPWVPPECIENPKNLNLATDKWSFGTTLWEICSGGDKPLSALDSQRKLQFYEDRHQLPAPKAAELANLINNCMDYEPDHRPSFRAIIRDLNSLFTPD
# Protocol: Example C. JAK2 LanthaScreen JH2-V617F Binding Assay
# (§1) JAK2 JH2-V617F binding assay utilizes pseudo-kinase domain (JH2, amino-acids 536-812 with 3 surface mutations W659A, W777A, F794H) of human V617F mutant JAK2 expressed as C-terminal His-Avi-tagged, biotinylated protein in a baculovirus expression system (BPS Bioscience, Catalog #79498). The assay was conducted in black 384-well polystyrene plates in a final reaction volume of 20 μL. JAK2 JH2-V617F (0.26 nM) was incubated with compounds (100 nL serially diluted in DMSO) in the presence of 50 nM Fluorescent JAK2-JH2 Tracer (MedChem Express Catalog #HY-102055) and 0.25 nM Streptavidin-Tb cryptate (Cisbio Part #610SATLB) in assay buffer (50 mM Tris, pH=7.5, 10 mM MgCl2, 0.01% Brij-35, 0.1% BSA, 1 mM EGTA, 5% Glycerol and 5 mM DTT). Non-specific binding was accessed in the presence of 2 mM ATP. After incubation for 1 hour at 25° C., LanthaScreen signals were read on a PHERAstar FS plate reader (BMG LABTECH). Data was analyzed with IDBS XLfit and GraphPad Prism 5.0 software using a four parameter dose response curve to determine IC50 for each compound.
# [2] = biological target: T2, pseudo-kinase domain (JH2) of human Wild Type JAK2 (Homo sapiens, UniProt O60674, F794H/W659A/W777A); experiment: JAK2 LanthaScreen JH2-WT Binding Assay; conditions: read-out: JH2 BIND WT
# T2 construct: JH2, amino-acids 536-812 with 3 surface mutations; His (C); purchased BPS Bioscience 79463; host or cells: baculovirus expression system
# T2 sequence (O60674 536-812 W659A/W777A/F794H): as the sequence (O60674 536-812 V617F/W659A/W777A/F794H) above, with F82V counted along it
# Protocol: Example B. JAK2 LanthaScreen JH2-WT Binding Assay
# as §1, with “JH2-WT” for “JH2-V617F”, “Wild Type” for “V617F mutant”, “#79463).” for “#79498).”, “JH2-WT (0.145” for “JH2-V617F (0.26”
# [3] = biological target: T3, catalytic domain (JH1) of human JAK2 (Homo sapiens, UniProt O60674); experiment: JAK2 HTRF Enzyme Activity Assay; format: biochemical; design: JH1, amino acids 808-1132; His (N); purchased BPS Bioscience 40450; host or cells: baculovirus expression system; conditions: ATP 30 μM or 1 mM (not given), read-out: ENZ
# Protocol: Example D. JAK2 HTRF Enzyme Activity Assay
# JAK2 enzyme activity assays utilize catalytic domain (JH1, amino acids 808-1132) of human JAK2 expressed as N-terminal His-tagged protein in a baculovirus expression system (BPS Bioscience, Catalog #40450). The assays was conducted in black 384-well polystyrene plates in a final reaction volume of 20 μL. JAK2 (0.015 nM) was incubated with compounds (100 nL serially diluted in DMSO) in the presence of ATP (30 μM or 1 mM) and 500 nM Biotin-labeled EQEDEPEGDYFEWLE (SEQ ID NO.: 1) peptide (BioSource International, custom synthesis) in assay buffer (50 mM Tris, pH=7.5, 10 mM MgC2, 0.01% Brij-35, 0.1% BSA, 1 mM EGTA, 5% Glycerol and 5 mM DTT) for 60 minutes at 25° C. The reactions were stopped by the addition of 10 μL of detection buffer (50 mM Tris, pH 7.8, 0.5 mg/mL BSA, 150 mM NaCl), supplemented with EDTA, LANCE Eu-W1024 anti-phosphotyrosine (PY20), (PerkinElmer, Catalog #AD0067) and Streptavidin SureLight APC (PerkinElmer Catalog #CR130-100), for a final concentration of 15 mM, 1.5 nM and 75 nM, respectively. HTRF signals were read after 30 minutes incubation at room temperature on a PHERAstar FS plate reader (BMG LABTECH). Data was analyzed with IDBS XLfit and GraphPad Prism 5.0 software using a four parameter dose response curve to determine IC50 for each compound.
# Target sequence in this assay (O60674 808-1132): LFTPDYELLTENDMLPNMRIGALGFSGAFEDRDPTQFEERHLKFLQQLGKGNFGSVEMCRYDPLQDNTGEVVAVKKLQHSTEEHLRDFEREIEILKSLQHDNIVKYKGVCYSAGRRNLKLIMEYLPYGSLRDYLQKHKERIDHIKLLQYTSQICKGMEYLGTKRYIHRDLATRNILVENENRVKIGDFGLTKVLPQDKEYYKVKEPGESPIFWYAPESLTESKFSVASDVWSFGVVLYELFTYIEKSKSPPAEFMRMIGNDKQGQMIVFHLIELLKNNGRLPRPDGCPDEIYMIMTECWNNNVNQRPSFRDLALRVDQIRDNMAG
# [4] = biological target: T3, catalytic domain (JH1) of human JAK2; experiment: JAK2 LanthaScreen JH1 Binding Assay; design: JH1, amino acids 826-1132; FLAG (N); purchased Carna Biosciences 08-445-20N; host or cells: baculovirus expression system; conditions: read-out: JH1 BIND
# Protocol: Example A. JAK2 LanthaScreen JH1 Binding Assay
# JAK2 JH1 binding assay utilizes catalytic domain (JH1, amino acids 826-1132) of human JAK2 expressed as N-terminal FLAG-tagged, biotinylated protein in a baculovirus expression system (Carna Biosciences, Product #08-445-20N). The assay was conducted in black 384-well polystyrene plates in a final reaction volume of 20 μL. JAK2 JH1 (1.5 nM) was incubated with compounds (100 nL serially diluted in DMSO) in the presence of 50 nM fluorescent JAK2-JH1 tracer and 0.5 nM Streptavidin-Tb cryptate (Cisbio Part #610SATLB) in assay buffer (50 mM Tris, pH=7.5, 10 mM MgCl2, 0.01% Brij-35, 0.1% BSA, 1 mM EGTA, 5% Glycerol and 5 mM DTT). Non-specific binding was accessed in the presence of 2 mM ATP. After incubation for 2 hours at 25° C., LanthaScreen signals were read on a PHERAstar FS plate reader (BMG LABTECH). Data was analyzed with IDBS XLfit and GraphPad Prism 5.0 software using a four parameter dose response curve to determine IC50 for each compound.
# Target sequence in this assay (O60674 826-1132): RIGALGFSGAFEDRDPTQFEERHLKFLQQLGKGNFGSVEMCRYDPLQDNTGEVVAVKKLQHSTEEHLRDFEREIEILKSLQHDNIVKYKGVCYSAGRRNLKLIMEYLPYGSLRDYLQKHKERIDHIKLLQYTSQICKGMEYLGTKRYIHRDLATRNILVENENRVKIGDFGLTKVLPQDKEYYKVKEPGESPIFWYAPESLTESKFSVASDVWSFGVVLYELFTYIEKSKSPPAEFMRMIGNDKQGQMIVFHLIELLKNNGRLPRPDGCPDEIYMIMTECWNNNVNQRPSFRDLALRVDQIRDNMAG
SMILES,IC50 [1] [nM],IC50 [2] [nM],IC50 [3] [nM],IC50 [4] [nM]
"CCS(=O)(=O)Nc1ccc(Cn2cc(-c3ccn4nc(NC(=O)C5CC5)nc(Nc5cccc(C(F)(F)F)c5OC)c34)cn2)cc1 [Example 1, N-(5-(1-(4-(Ethylsulfonamido)benzyl)-1H-pyrazol-4-yl)-4-((2-methoxy-3-(trifluoromethyl)phenyl)amino)pyrrolo[2,1-f][1,2,4]triazin-2-yl)cyclopropanecarboxamide]",≤ 100,≤ 100,> 10000,> 10000
"CCS(=O)(=O)Nc1ccc(Cn2cc(-c3ccn4nc(NC(=O)C5CC5)nc(Nc5cccc(-c6ncn(C)n6)c5OC)c34)cn2)cc1 [Example 3, N-(5-(1-(4-(Ethylsulfonamido)benzyl)-1H-pyrazol-4-yl)-4-((2-methoxy-3-(1-methyl-1H-1,2,4-triazol-3-yl)phenyl)amino)pyrrolo[2,1-f][1,2,4]triazin-2-yl)cyclopropanecarboxamide]",100 to 500,≤ 100,> 10000,> 10000
"COc1c(Nc2nc(NC(=O)C3CC3)nn3ccc(-c4cnn(Cc5ccc(NS(=O)(=O)C6CC6)cc5)c4)c23)cccc1C(F)(F)F [Example 2, N-(5-(1-(4-(Cyclopropanesulfonamido)benzyl)-1H-pyrazol-4-yl)-4-((2-methoxy-3-(trifluoromethyl)phenyl)amino)pyrrolo[2,1-f][1,2,4]triazin-2-yl)cyclopropanecarboxamide]",≤ 100,≤ 100,> 10000,> 10000
"COc1c(Nc2nc(NC(=O)C3CC3)nn3ccc(-c4cnn(Cc5ccc(C(=O)O)cc5)c4)c23)cccc1C(F)(F)F [Example 6, 4-((4-(2-(Cyclopropanecarboxamido)-4-((2-methoxy-3-(trifluoromethyl)phenyl)amino)pyrrolo[2,1-f][1,2,4]triazin-5-yl)-1H-pyrazol-1-yl)methyl)benzoic acid]",≤ 100,≤ 100,1000 to 10000,1000 to 10000
"COc1c(Nc2nc(NC(=O)C3CC3)nn3ccc(-c4cnn(Cc5ccc(NS(C)(=O)=O)cc5)c4)c23)cccc1-c1ncn(C)n1 [Example 4, N-(4-((2-Methoxy-3-(1-methyl-1H-1,2,4-triazol-3-yl)phenyl)amino)-5-(1-(4-(methylsulfonamido)benzyl)-1H-pyrazol-4-yl)pyrrolo[2,1-f][1,2,4]triazin-2-yl)cyclopropanecarboxamide]",100 to 500,100 to 500,> 10000,> 10000
"COc1c(Nc2nc(NC(=O)C3CC3)nn3ccc(-c4cnn(Cc5cccnc5)c4)c23)cccc1C(F)(F)F [Example 5, N-(4-((2-Methoxy-3-(trifluoromethyl)phenyl)amino)-5-(1-(pyridin-3-ylmethyl)-1H-pyrazol-4-yl)pyrrolo[2,1-f][1,2,4]triazin-2-yl)cyclopropanecarboxamide]",1000 to 10000,1000 to 10000,> 10000,> 10000
